Data on 15 compounds can be found in BindingDB's records for doi:10.1021/jm970470c (Warner-Lambert, 1997).

Where only a bound is given, the exact number is not on record here.

The assay can be described thus: Concentration required to inhibit 50% of the cultured colonies of H-Ras-Fcells.
`O=C(CN(Cc1ccc(OCc2ccccc2)cc1)C(=O)[C@H](Cc1cnc[nH]1)NC(=O)OCc1ccccc1)NCC1(c2ccccc2)CCCC1` [[(S)-1-((4-Benzyloxy-benzyl)-{[(1-phenyl-cyclopentylmethyl)-carbamoyl]-methyl}-carbamoyl)-2-(3H-imidazol-4-yl)-ethyl]-carbamic acid benzyl ester] had an IC50 of 330 nM. To `C[C@H](Cc1ccccc1)NC(=O)CN(Cc1ccc(OCc2ccccc2)cc1)C(=O)[C@H](Cc1cnc[nH]1)NC(=O)OCc1ccccc1` [[(S)-1-{(4-Benzyloxy-benzyl)-[((R)-1-methyl-2-phenyl-ethylcarbamoyl)-methyl]-carbamoyl}-2-(3H-imidazol-4-yl)-ethyl]-carbamic acid benzyl ester] belongs 710 nM; to `O=C(CN(Cc1ccc(OCc2ccccc2)cc1)C(=O)[C@H](Cc1cnc[nH]1)NC(=O)OCc1ccccc1)NCC1(c2ccccc2)CC1` [[(S)-1-((4-Benzyloxy-benzyl)-{[(1-phenyl-cyclopropylmethyl)-carbamoyl]-methyl}-carbamoyl)-2-(3H-imidazol-4-yl)-ethyl]-carbamic acid benzyl ester], 180 nM; to `CC(CNC(=O)CN(Cc1ccc(OCc2ccccc2)cc1)C(=O)[C@H](Cc1cnc[nH]1)NC(=O)OCc1ccccc1)c1ccccc1` (stereo partly drawn) [[(S)-1-{(4-Benzyloxy-benzyl)-[(2-phenyl-propylcarbamoyl)-methyl]-carbamoyl}-2-(3H-imidazol-4-yl)-ethyl]-carbamic acid benzyl ester], 310 nM. To `O=C(CN(Cc1ccc(OCc2ccccc2)cc1)C(=O)[C@H](Cc1cnc[nH]1)NC(=O)OCc1ccccc1)NCCOCc1ccccc1` [[(S)-1-{(4-Benzyloxy-benzyl)-[(2-benzyloxy-ethylcarbamoyl)-methyl]-carbamoyl}-2-(1H-imidazol-4-yl)-ethyl]-carbamic acid benzyl ester] belongs 14300 nM. Compound `C[C@H](CNC(=O)CN(Cc1ccc(OCc2ccccc2)cc1)C(=O)[C@H](Cc1cnc[nH]1)NC(=O)OCc1ccccc1)c1ccccc1` [[(S)-1-{(4-Benzyloxy-benzyl)-[((S)-2-phenyl-propylcarbamoyl)-methyl]-carbamoyl}-2-(3H-imidazol-4-yl)-ethyl]-carbamic acid benzyl ester] had an IC50 of 300 nM.

`CCC(CNC(=O)CN(Cc1ccc(OCc2ccccc2)cc1)C(=O)[C@H](Cc1cnc[nH]1)NC(=O)OCc1ccccc1)c1ccccc1` (stereo partly drawn) [[(S)-1-{(4-Benzyloxy-benzyl)-[(2-phenyl-butylcarbamoyl)-methyl]-carbamoyl}-2-(3H-imidazol-4-yl)-ethyl]-carbamic acid benzyl ester] returned an IC50 of 400 nM. To `C[C@@H](Cc1ccccc1)NC(=O)CN(Cc1ccc(OCc2ccccc2)cc1)C(=O)[C@H](Cc1cnc[nH]1)NC(=O)OCc1ccccc1` [[(S)-1-{(4-Benzyloxy-benzyl)-[((S)-1-methyl-2-phenyl-ethylcarbamoyl)-methyl]-carbamoyl}-2-(3H-imidazol-4-yl)-ethyl]-carbamic acid benzyl ester] belongs 6300 nM; to `O=C(CN(Cc1ccc(OCc2ccccc2)cc1)C(=O)[C@H](Cc1cnc[nH]1)NC(=O)OCc1ccccc1)NCC1(c2ccccc2)CCC1` [[(S)-1-((4-Benzyloxy-benzyl)-{[(1-phenyl-cyclobutylmethyl)-carbamoyl]-methyl}-carbamoyl)-2-(3H-imidazol-4-yl)-ethyl]-carbamic acid benzyl ester], 88 nM. With `C[C@@H](CNC(=O)CN(Cc1ccc(OCc2ccccc2)cc1)C(=O)[C@H](Cc1cnc[nH]1)NC(=O)OCc1ccccc1)c1ccccc1` [[(S)-1-{(4-Benzyloxy-benzyl)-[((R)-2-phenyl-propylcarbamoyl)-methyl]-carbamoyl}-2-(3H-imidazol-4-yl)-ethyl]-carbamic acid benzyl ester] the figure was 570 nM. To `O=C(CN(Cc1ccc(OCc2ccccc2)cc1)C(=O)[C@H](Cc1cnc[nH]1)NC(=O)OCc1ccccc1)NCCc1ccccc1` [[(S)-1-[(4-Benzyloxy-benzyl)-(phenethylcarbamoyl-methyl)-carbamoyl]-2-(1H-imidazol-4-yl)-ethyl]-carbamic acid benzyl ester] belongs 4300 nM; to `CC(C)(CNC(=O)CN(Cc1ccc(OCc2ccccc2)cc1)C(=O)[C@H](Cc1cnc[nH]1)NC(=O)OCc1ccccc1)c1ccccc1` [[(S)-1-{(4-Benzyloxy-benzyl)-[(2-methyl-2-phenyl-propylcarbamoyl)-methyl]-carbamoyl}-2-(3H-imidazol-4-yl)-ethyl]-carbamic acid benzyl ester], 180 nM. On to `N#CC(CNC(=O)CN(Cc1ccc(OCc2ccccc2)cc1)C(=O)[C@H](Cc1cnc[nH]1)NC(=O)OCc1ccccc1)c1ccccc1` (stereo partly drawn) [[(S)-1-{(4-Benzyloxy-benzyl)-[(2-cyano-2-phenyl-ethylcarbamoyl)-methyl]-carbamoyl}-2-(3H-imidazol-4-yl)-ethyl]-carbamic acid benzyl ester], for which the IC50 turned out to be 190 nM. For the compound `CCC(CC)(CNC(=O)CN(Cc1ccc(OCc2ccccc2)cc1)C(=O)[C@H](Cc1cnc[nH]1)NC(=O)OCc1ccccc1)c1ccccc1` [[(S)-1-{(4-Benzyloxy-benzyl)-[(2-ethyl-2-phenyl-butylcarbamoyl)-methyl]-carbamoyl}-2-(3H-imidazol-4-yl)-ethyl]-carbamic acid benzyl ester], the IC50 is greater than 1000 nM. `CCCC(CNC(=O)CN(Cc1ccc(OCc2ccccc2)cc1)C(=O)[C@H](Cc1cnc[nH]1)NC(=O)OCc1ccccc1)c1ccccc1` (stereo partly drawn) [[(S)-1-{(4-Benzyloxy-benzyl)-[(2-phenyl-pentylcarbamoyl)-methyl]-carbamoyl}-2-(3H-imidazol-4-yl)-ethyl]-carbamic acid benzyl ester] had an IC50 greater than 1000 nM.
